# Experimental data from ChEMBL document CHEMBL4422630, “Identification of substituted 5-membered heterocyclic compounds as potential anti-leukemic agents” (Eur J Med Chem, 2019).
# The source made the active and inactive calls. The calls are words filed in the database; no cut-off is given here.
# Key:
# [1] = system: KOPN-8; assay: Induction of apoptosis in human KOPN8 cells assessed as late apoptotic cells level at 2 uM after 24 hrs by Annexin V and propidium iodide staining based flow cytometry (reference value: 96.4%); type: functional
# [2] = system: KOPN-8; assay: Induction of apoptosis in human KOPN8 cells assessed as late apoptotic cells level at 2 uM after 24 hrs by Annexin V and propidium iodide staining based flow cytometry (reference value: 2%); type: functional
# [3] = system: SUP-B15; assay: Induction of apoptosis in human SUP-B15 cells assessed as late apoptotic cells level at 2 uM after 24 hrs by Annexin V and propidium iodide staining based flow cytometry (reference value: 13.5%); type: functional
# [4] = system: SUP-B15; assay: Induction of apoptosis in human SUP-B15 cells assessed as late apoptotic cells level at 2 uM after 24 hrs by Annexin V and propidium iodide staining based flow cytometry (reference value: 83%); type: functional
# [5] = Half life in mouse microsomes; type: ADME, Microsome
# [6] = Half life in simulated gastric fluid; type: ADME
# [7] = system: KOPN-8; assay: Induction of apoptosis in human KOPN8 cells assessed as late apoptotic cells level after 24 hrs by Annexin V and propidium iodide staining based flow cytometry (reference value: 2%); type: functional
# [8] = system: SUP-B15; assay: Cytotoxicity in human SUP-B15 cells assessed as decrease in cell viability after 24 hrs by bis-AAF-RF110 dye based assay; type: functional
# [9] = system: MDA-MB-231; assay: Cytotoxicity against human MDA-MB-231 cells at 30 uM after 24 hrs by propidium iodide staining-based fluorescence assay; type: functional, cell-based
# [10] = system: KOPN-8; assay: Antiproliferative activity against human KOPN8 assessed as reduction in cell viability after 72 hrs by CellTiter-Glo assay; type: functional, cell-based; conditions: KOPN-8, 72 h
# [11] = system: KOPN-8; assay: Cell cycle arrest in human KOPN8 cells assessed as increase in accumulation of cells at S phase at 5 uM after 24 hrs by propidium iodide staining-based flow cytometric analysis; type: functional
# [12] = Permeability of compound at pH 7.4 assessed as drug retention by PAMPA; type: ADME
# [13] = system: BJ; assay: Antiproliferative activity against human BJ assessed as cell viability after 72 hrs by CellTiter-Glo assay; type: functional, cell-based
# [14] = system: SUP-B15; assay: Induction of apoptosis in human SUP-B15 cells assessed as decrease in cell viability at 5 uM after 24 hrs by Annexin V/propidium iodide staining-based flow cytometric analysis; type: functional
# [15] = Half life in human plasma; type: ADME, cell-free
# [16] = Protein binding in mouse plasma; type: ADME, cell-free; conditions: read-out: PPB (converted)
# [17] = system: SUP-B15; assay: Induction of apoptosis in human SUP-B15 cells assessed as late apoptotic cells level after 24 hrs by Annexin V and propidium iodide staining based flow cytometry (reference value: 13.5%); type: functional
# [18] = system: SUP-B15; assay: Antiproliferative activity against human SUP-B15 assessed as reduction in cell viability after 72 hrs by CellTiter-Glo assay; type: functional, cell-based; conditions: SUP-B15, 72 h
# [19] = system: SUP-B15; assay: Induction of apoptosis in human SUP-B15 cells assessed as late apoptotic cells level after 24 hrs by Annexin V and propidium iodide staining based flow cytometry (reference value: 83%); type: functional
# [20] = Half life in mouse plasma; type: ADME, cell-free
# [21] = system: KOPN-8; assay: Induction of apoptosis in human KOPN8 cells assessed as late apoptotic cells level after 24 hrs by Annexin V and propidium iodide staining based flow cytometry (reference value: 96.4%); type: functional
# [22] = system: B-ALL; assay: Induction of apoptosis in mouse B-ALL BCR-ABL double knockout cells assessed as increase in caspase 3/7 activity after 24 hrs by caspase-Glo 3/7 reagent based luminescence assay; type: functional, cell-based
# [23] = system: SUP-B15; assay: Induction of apoptosis in human SUP-B15 cells assessed as decrease in cell viability at […] after 24 hrs by ApoTox-Glo triplex assay; type: functional, cell-based
# [24] = system: MDA-MB-231; assay: Cytotoxicity against human MDA-MB-231 cells up to 30 uM after 24 hrs by propidium iodide staining-based fluorescence assay; type: functional, cell-based
# [25] = system: K562; assay: Antiproliferative activity against human K562 assessed as reduction in cell viability after 72 hrs by CellTiter-Glo assay; type: functional, cell-based; conditions: K562, 72 h
# [26] = system: KOPN-8; assay: Induction of apoptosis in human KOPN8 cells assessed as decrease in cell viability at 5 uM after 24 hrs by Annexin V/propidium iodide staining-based flow cytometric analysis; type: functional
# [27] = Therapeutic index, ratio of EC50 for human BJ cells to EC50 for mouse B-ALL cells expressing wild type BCR-ABL; type: toxicity; conditions: human BJ cells versus mouse B-ALL cells expressing wild type BCR-ABL; read-out: Ratio EC50
# [28] = system: SUM149PT; assay: Cytotoxicity against human SUM149 cells at 1 uM after 24 hrs by propidium iodide staining-based fluorescence assay relative to control; type: functional, cell-based
# [29] = Intrinsic clearance in human microsomes; type: ADME, Microsome
# [30] = Permeability of compound at pH 7.4 by PAMPA; type: ADME; conditions: for Papp: read-out: Peff
# [31] = Efflux ratio of apparent permeability across basolateral to apical side over apical to basolateral side in human Caco2 cells; type: ADME, cell-based; conditions: Caco-2
# [32] = system: NALM-6; assay: Antiproliferative activity against human NALM6 assessed as reduction in cell viability after 72 hrs by CellTiter-Glo assay; type: functional, cell-based; conditions: NALM-6, 72 h
# [33] = Protein binding in human plasma; type: ADME, cell-free; conditions: read-out: PPB (converted)
# [34] = Half life in human microsomes; type: ADME, Microsome
# [35] = system: B-ALL; assay: Antiproliferative activity against mouse B-ALL cells expressing wild type BCR-ABL assessed as reduction in cell viability after 72 hrs by CellTiter-Glo assay; type: functional, cell-based
# [36] = system: KOPN-8; assay: Cell cycle arrest in human KOPN8 cells assessed as reduction in accumulation of cells at G1/G0 phase at 5 uM after 24 hrs by propidium iodide staining-based flow cytometric analysis; type: functional
# [37] = system: UoC-B1; assay: Antiproliferative activity against human UOCB1 assessed as reduction in cell viability after 72 hrs by CellTiter-Glo assay; type: functional, cell-based; conditions: UoC-B1, 72 h
# [38] = Apparent permeability of compound form basolateral to apical side in human Caco2 cells; type: ADME, cell-based; conditions: Caco-2
# [39] = system: MV4-11; assay: Antiproliferative activity against human MV411 assessed as reduction in cell viability after 72 hrs by CellTiter-Glo assay; type: functional, cell-based; conditions: MV4-11, 72 h
# [40] = system: SUP-B15; assay: Induction of apoptosis in human SUP-B15 cells assessed as increase in caspase 3/7 activity after 24 hrs by caspase-Glo 3/7 reagent based luminescence assay; type: functional, cell-based
# [41] = system: B-ALL; assay: Antiproliferative activity against mouse B-ALL BCR-ABL double knockout cells assessed as reduction in cell viability after 72 hrs by CellTiter-Glo assay; type: functional, cell-based
# [42] = Apparent permeability of compound form apical to basolateral side in human Caco2 cells; type: ADME, cell-based; conditions: Caco-2
# [43] = Intrinsic clearance in mouse microsomes; type: ADME, Microsome
# [44] = system: KOPN-8; assay: Cell cycle arrest in human KOPN8 cells at 5 uM after 24 hrs by propidium iodide staining-based flow cytometric analysis; type: functional
# [45] = system: SUP-B15; assay: Cell cycle arrest in human SUP-B15 cells assessed as accumulation of cells at G1/G0 phase at 5 uM after 24 hrs by propidium iodide staining-based flow cytometric analysis; type: functional
# [46] = system: KOPN-8; assay: Cell cycle arrest in human KOPN8 cells assessed as accumulation of cells at G2/M phase at 5 uM after 24 hrs by propidium iodide staining-based flow cytometric analysis relative to control; type: functional
# [47] = system: SUP-B15; assay: Cell cycle arrest in human SUP-B15 cells assessed as accumulation of cells at G2/M phase at 5 uM after 24 hrs by propidium iodide staining-based flow cytometric analysis; type: functional
# [48] = system: KOPN-8; assay: Cell cycle arrest in human KOPN8 cells assessed as accumulation of cells at G1/G0 phase at 5 uM after 24 hrs by propidium iodide staining-based flow cytometric analysis relative to control; type: functional
# [49] = system: SUM149PT; assay: Cytotoxicity against human SUM149 cells at 100 uM after 24 hrs by propidium iodide staining-based fluorescence assay relative to control; type: functional
compound,measurement,setting,value
CN[C@@H]1C[C@H]2O[C@@](C)([C@@H]1OC)n1c3ccccc3c3c4c(c5c6ccccc6n2c5c31)C(=O)NC4 [STAUROSPORINE],Activity,[1],53.2%
same,Activity,[2],45.2%
same,Activity,[3],52.3%
same,Activity,[4],10%
O=C(Cc1ccccc1)Nc1ccc(-c2nc3cc(NC(=O)Cc4ccccc4)ccc3[nH]2)cc1,half-life,[5],5.44 h
same,half-life,[6],> 48 h
same,Activity,[7],18.5%
same,Activity,[8],Active
same,Activity,[9],Active
same,EC50,[10],180 nM
same,Activity,[11],Active
same,permeability,[12],74.6%
same,EC50,[13],8350 nM
same,Activity,[14],Active
same,half-life,[15],> 48 h
same,fraction unbound,[16],0.002
same,Activity,[17],18.6%
same,EC50,[18],270 nM
same,Activity,[19],24.2%
same,half-life,[20],> 48 h
same,Activity,[21],80.1%
same,Activity,[22],inactive
same,Activity,[23],Active
same,Activity,[24],inactive
same,EC50,[25],> 10000 nM
same,Activity,[26],Active
same,selectivity ratio,[27],13
same,Activity,[28],Active
same,CLint scaled,[29],5.85 mL/min/kg
same,Papp,[30],204 ×10⁻⁶ cm/s
same,efflux ratio,[31],20.1
same,EC50,[32],4240 nM
same,fraction unbound,[33],0.003
same,half-life,[34],3.56 h
same,EC50,[35],635 nM
same,Activity,[36],Active
same,EC50,[37],> 43300 nM
same,Papp B→A,[38],4.13 ×10⁻⁶ cm/s
same,EC50,[39],716 nM
same,Activity,[40],Active
same,EC50,[41],784 nM
same,Papp A→B,[42],0.206 ×10⁻⁶ cm/s
same,CLint scaled,[43],10.5 mL/min/kg
CC(C)C(=O)Nc1ccc2oc(-c3ccc(C(C)(C)C)cc3)nc2c1,half-life,[5],3.41 h
same,half-life,[6],> 48 h
same,Activity,[7],4.8%
same,Activity,[8],Active
same,Activity,[9],Active
same,EC50,[10],1110 nM
same,Activity,[11],Active
same,permeability,[12],53.6%
same,EC50,[13],> 43300 nM
same,Activity,[14],Active
same,half-life,[15],> 48 h
same,Activity,[17],6.3%
same,EC50,[18],1320 nM
same,Activity,[19],69.2%
same,half-life,[20],> 48 h
same,Activity,[21],94.4%
same,Activity,[22],inactive
same,Activity,[23],Active
same,Activity,[24],inactive
same,EC50,[25],8360 nM
same,Activity,[26],Active
same,selectivity ratio,[27],> 9
same,Activity,[28],Active
same,CLint scaled,[29],24.3 mL/min/kg
same,Peff,[30],1916.4 ×10⁻⁶ cm/s
same,efflux ratio,[31],0.31
same,EC50,[32],604 nM
same,half-life,[34],0.86 h
same,EC50,[35],4650 nM
same,Activity,[44],inactive
same,EC50,[37],> 43300 nM
same,Activity,[45],Active
same,Papp B→A,[38],2.26 ×10⁻⁶ cm/s
same,EC50,[39],603 nM
same,Activity,[40],Active
same,EC50,[41],> 43300 nM
same,Papp A→B,[42],7.26 ×10⁻⁶ cm/s
same,CLint scaled,[43],16.8 mL/min/kg
Cc1ccc(S(=O)(=O)Cc2nc(-c3ccc(C(=O)NCc4cccnc4)cc3)oc2C)cc1,half-life,[5],1.2 h
same,half-life,[6],> 48 h
same,Activity,[7],2.9%
same,Activity,[8],Active
same,Activity,[9],Active
same,EC50,[10],1230 nM
same,Activity,[11],Active
same,permeability,[12],24.8%
same,Activity,[46],12%
same,EC50,[13],2490 nM
same,Activity,[14],Active
same,half-life,[15],> 48 h
same,fraction unbound,[16],0.023
same,Activity,[17],7.6%
same,EC50,[18],1100 nM
same,Activity,[47],inactive
same,Activity,[19],69.9%
same,half-life,[20],> 48 h
same,Activity,[21],95.8%
same,Activity,[22],inactive
same,Activity,[48],10%
same,Activity,[23],Active
same,Activity,[24],inactive
same,EC50,[25],4600 nM
same,Activity,[26],Active
same,selectivity ratio,[27],34
same,CLint scaled,[29],14.5 mL/min/kg
same,Papp,[30],617 ×10⁻⁶ cm/s
same,efflux ratio,[31],3.5
same,EC50,[32],26 nM
same,fraction unbound,[33],0.042
same,half-life,[34],1.44 h
same,EC50,[35],72 nM
same,EC50,[37],> 55000 nM
same,Activity,[45],inactive
same,Papp B→A,[38],37.2 ×10⁻⁶ cm/s
same,Activity,[49],50%
same,EC50,[39],3800 nM
same,Activity,[40],Active
same,EC50,[41],61 nM
same,Papp A→B,[42],10.6 ×10⁻⁶ cm/s
same,CLint scaled,[43],47.5 mL/min/kg
